This is an account of results in ChEMBL document CHEMBL1132398, “Identification of (-)-cis-6-acetyl-4S-(3-chloro-4-fluoro-benzoylamino)- 3,4-dihydro-2,2-dimethyl-2H-benzo[b]pyran-3S-ol as a potential antimigraine agent” (Bioorg Med Chem Lett, 1999).

The test system of assay [1] is Mus musculus. Kind of assay: In vivo percent increase in seizure threshold in mouse MEST model 1 hour following 10 mg/kg p.o. The following applies: at 10 mg/kg.
For assay [2], the species on record is Rattus norvegicus. Nature of the assay: Ability to displace [3H]- SB-204269 in the rat forebrain.
The subject of assay [3] is Mus musculus. Kind of assay: In vivo percent increase in seizure threshold in mouse MEST model 4 hours following 10 mg/kg p.o. The following applies: at 10 mg/kg.
The subject of assay [4] is Rattus norvegicus. Kind of assay: In vivo percent increase in seizure threshold in rat MEST model at the dose of 10 mg/kg p.o. recorded 0.25 hr post dose. The assay is classed as functional. The following applies: route oral.
In assay [5] the test system is Rattus norvegicus. Kind of assay: In vivo percent increase in seizure threshold in rat MEST model at the dose of 10 mg/kg p.o. recorded 0.5 hr post dose. It counts as functional. The following applies: route oral.
Assay [6] relates to Rattus norvegicus. Nature of the assay: In vivo percent increase in seizure threshold in rat MEST model at the dose of 10 mg/kg p.o. recorded 1 hr post dose. The assay is classed as functional. The following applies: route oral.
Assay [7] relates to Rattus norvegicus. Kind of assay: In vivo percent increase in seizure threshold in rat MEST model at the dose of 10 mg/kg p.o. recorded 2 hr post dose. The assay is classed as functional. The following applies: route oral.
Assay [8] has as its system Rattus norvegicus. Kind of assay: In vivo percent increase in seizure threshold in rat MEST model at the dose of 10 mg/kg p.o. recorded 6 hr post dose. The assay is classed as functional. The note with it: route oral.
Assay [9] relates to Rattus norvegicus. Kind of assay: In vivo percent increase in seizure threshold in rat MEST model at the dose of 3 mg/kg p.o. recorded 4 hr post dose. The assay is classed as functional. The following applies: route oral.
The test system of assay [10] is Rattus norvegicus. Nature of the assay: In vivo percent increase in seizure threshold in rat MEST model at the dose of 3 mg/kg p.o. recorded 0.5 hr post dose. The following applies: route oral. The assay is classed as functional.
Assay [11] deals with Rattus norvegicus. Nature of the assay: In vivo percent increase in seizure threshold in rat MEST model at the dose of 3 mg/kg p.o. recorded 1 hr post dose. The note with it: route oral. The assay is classed as functional.
Assay [12] has as its system Rattus norvegicus. Nature of the assay: In vivo percent increase in seizure threshold in rat MEST model at the dose of 3 mg/kg p.o. recorded 0.25 hr post dose. It counts as functional. The following applies: route oral.
Assay [13] relates to Rattus norvegicus. Nature of the assay: In vivo percent increase in seizure threshold in rat MEST model at the dose of 3 mg/kg p.o. recorded 2 hr post dose. It counts as functional. The following applies: route oral.
Assay [14] relates to Rattus norvegicus. Kind of assay: In vivo percent increase in seizure threshold in rat MEST model at the dose of 3 mg/kg p.o. recorded 6 hr post dose. The following applies: route oral. It counts as functional.

In the case of `CC(=O)c1ccc2c(c1)[C@H](NC(=O)c1cnccn1)[C@@H](O)C(C)(C)O2`, the Increase in the assay with Mus musculus [1] turned out to be 15%.
`CC(=O)c1ccc2c(c1)[C@H](NC(=O)c1ccsc1)[C@@H](O)C(C)(C)O2`: the Increase with Mus musculus [1] was determined as 50%.
Molecule `CC(=O)c1ccc2c(c1)[C@H](NC(=O)c1c(Cl)cccc1Cl)[C@@H](O)C(C)(C)O2` returned an Increase in the assay with Mus musculus [1] of 10%.
Consider `CC(=O)c1ccc2c(c1)[C@H](NC(=O)c1ccsc1Cl)[C@H](O)C(C)(C)O2`, for which the figures for the Increase in the assay with Mus musculus [1] and with Mus musculus [3] were 47% and 383%, respectively. The “Log Ki” value in the assay filed under Rattus norvegicus [2] is -7.5.
Turning to `CC(=O)c1ccc2c(c1)[C@H](NC(=O)c1ccc(F)cc1)[C@@H](O)C(C)(C)O2` [CARABERSAT], the Increase amounted to 48% in the assay with Rattus norvegicus [4]; 90% with Rattus norvegicus [5]; 180% in the assay on Rattus norvegicus [6]; 420% in the assay with Rattus norvegicus [7]; 390% in the assay on Rattus norvegicus [8]. Besides, the “Log Ki” value in the assay filed under Rattus norvegicus [2] is -7.3.
`CC(=O)c1ccc2c(c1)[C@H](NC(=O)c1ccsc1Cl)[C@@H](O)C(C)(C)O2`: the Increase in the assay on Mus musculus [1] was 95%; in the assay with Mus musculus [3], 519%.
Take `CC(=O)c1ccc2c(c1)[C@H](NC(=O)c1ccc(F)c(Cl)c1)[C@H](O)C(C)(C)O2` [TONABERSAT]: in the assay filed under Rattus norvegicus [2], the “Log Ki” value was -7.9. Besides, the Increase with Rattus norvegicus [9] is reported as 533%; with Rattus norvegicus [10], 202%; in the assay with Rattus norvegicus [11], 369%; in the assay on Rattus norvegicus [12], 76%; in the assay with Rattus norvegicus [13], 576%; in the assay on Rattus norvegicus [14] it was 638%.
Take `CC(=O)c1ccc2c(c1)[C@H](NC(=O)c1ccc(F)cc1Cl)[C@H](O)C(C)(C)O2`: the Increase in the assay on Mus musculus [1] amounted to 153%; in the assay with Mus musculus [3], 269%. The “Log Ki” value in the assay filed under Rattus norvegicus [2] is -7.2.
Take `CC(=O)c1ccc2c(c1)[C@H](NC(=O)c1cccnc1)[C@@H](O)C(C)(C)O2`: the Increase in the assay on Mus musculus [1] worked out at 30%.
For the molecule `CC(=O)c1ccc2c(c1)[C@H](NC(=O)c1cccc(Cl)c1Cl)[C@@H](O)C(C)(C)O2`, the Increase in the assay with Rattus norvegicus [4] is 104%; in the assay with Rattus norvegicus [5], 286%; in the assay with Rattus norvegicus [6], 880%; in the assay with Rattus norvegicus [7] it was 1124%; in the assay with Rattus norvegicus [8] it was 1076%.
For `CC(=O)c1ccc2c(c1)[C@H](NC(=O)c1cccc(Cl)c1)[C@@H](O)C(C)(C)O2`, the Increase was 90% with Mus musculus [1]; 157% in the assay on Rattus norvegicus [4]; 273% with Rattus norvegicus [5]; 507% with Rattus norvegicus [6]; 796% in the assay with Rattus norvegicus [7]; 945% with Mus musculus [3]. This molecule also gave an Increase in the assay on Rattus norvegicus [8] of 983%.
For the molecule `CC(=O)c1ccc2c(c1)[C@H](NC(=O)c1ccc(F)cc1Cl)[C@@H](O)C(C)(C)O2`, the Increase in the assay with Mus musculus [1] stood at 162%; with Rattus norvegicus [9] it was 900%; in the assay on Rattus norvegicus [10] it was 208%; in the assay on Rattus norvegicus [11] it was 300%; in the assay with Rattus norvegicus [12] it was 90%; with Rattus norvegicus [13], 660%. The Increase in the assay on Rattus norvegicus [14] stood at 1060%; in the assay with Mus musculus [3], 1080%.
As for `CC(=O)c1ccc2c(c1)[C@H](NC(=O)c1cccc(Cl)c1)[C@H](O)C(C)(C)O2`, the Increase in the assay with Mus musculus [1] is 93%; in the assay on Mus musculus [3], 604%.
For the molecule `CC(=O)c1ccc2c(c1)[C@H](NC(=O)c1cc(Cl)cc(Cl)c1Cl)[C@@H](O)C(C)(C)O2`, the Increase in the assay on Mus musculus [1] stood at 33%.
For `CC(=O)c1ccc2c(c1)[C@@H](NC(=O)c1cccc(Cl)c1)[C@@H](O)C(C)(C)O2`, the Log Ki in the assay filed under Rattus norvegicus [2] was > -5.4.
